The test system of assay [1] is Staphylococcus aureus. In words: Antibacterial activity against Staphylococcus aureus ATCC 29213 by CLSI M07-A8 protocol based microdilution method. Type of assay: functional. On the technique in general: Dilution methods test growth across graded concentrations, often in twofold steps.
For assay [2], the system named is Staphylococcus aureus. In words: Antibacterial activity against methicillin-resistant Staphylococcus aureus SA86 by CLSI M07-A8 protocol based microdilution method. Type of assay: functional.

≈ marks a conversion by molar mass, not a printed value.

The text below walks through data of ChEMBL document CHEMBL4725375, “Total synthesis and a systematic structure-activity relationship study of WAP-8294A2” (2020).

What is called MIC is the lowest concentration found to suppress growth. High values mean a less susceptible organism, low ones a more susceptible organism. Regarding `CC(C)CCC[C@@H]1CC(=O)N[C@@H](CO)C(=O)N[C@H](CC(N)=O)C(=O)N[C@@H](CO)C(=O)NCC(=O)N(C)[C@H](Cc2ccccc2)C(=O)N[C@@H](CC(C)C)C(=O)N[C@H](CCCN)C(=O)N[C@@H](CCC(=O)O)C(=O)N[C@H](CC(N)=O)C(=O)N[C@H](Cc2c[nH]c3ccccc23)C(=O)N[C@H](CCCN)C(=O)N[C@@H](C(C)C)C(=O)O1`, the MIC against Staphylococcus aureus [1] and against Staphylococcus aureus [2] was at least 32 µg/mL each time.

For `CC(C)CCC[C@@H]1CC(=O)N[C@@H](CO)C(=O)N[C@H](CC(N)=O)C(=O)N[C@@H](C)C(=O)NCC(=O)N(C)[C@H](Cc2ccccc2)C(=O)N[C@@H](CC(C)C)C(=O)N[C@H](CCCN)C(=O)N[C@@H](CCC(=O)O)C(=O)N[C@H](CC(N)=O)C(=O)N[C@H](Cc2c[nH]c3ccccc23)C(=O)N[C@H](CCCN)C(=O)N(C)[C@@H](C(C)C)C(=O)O1`, the MIC against Staphylococcus aureus [1] and in the assay on Staphylococcus aureus [2] was 2 µg/mL (≈ 1.31 µM) each time.

In the case of `CC(C)CCC[C@@H]1CC(=O)N[C@@H](CO)C(=O)N[C@H](CC(N)=O)C(=O)N[C@@H](CO)C(=O)NCC(=O)N(C)[C@H](Cc2ccccc2)C(=O)N[C@@H](CC(C)C)C(=O)N[C@H](CCCN)C(=O)N[C@@H](CCC(=O)O)C(=O)N[C@H](CC(N)=O)C(=O)N[C@H](Cc2c[nH]c3ccccc23)C(=O)N[C@H](CCCN)C(=O)N(C)[C@@H](C(C)C)C(=O)O1`, the MIC against Staphylococcus aureus [1] and against Staphylococcus aureus [2] was 1 µg/mL (≈ 0.647 µM) in each case.

For `CC(C)CCC[C@@H]1CC(=O)N[C@@H](CO)C(=O)N[C@H](CC(N)=O)C(=O)N[C@@H](CO)C(=O)N[C@@H](C)C(=O)N(C)[C@H](Cc2ccccc2)C(=O)N[C@@H](CC(C)C)C(=O)N[C@H](CCCN)C(=O)N[C@@H](CCC(=O)O)C(=O)N[C@H](CC(N)=O)C(=O)N[C@H](Cc2c[nH]c3ccccc23)C(=O)N[C@H](CCCN)C(=O)N(C)[C@@H](C(C)C)C(=O)O1`, the MIC in the assay on Staphylococcus aureus [1] and in the assay on Staphylococcus aureus [2] was at least 32 µg/mL each time.

Consider `CC(C)CCC[C@@H]1CC(=O)N[C@@H](CO)C(=O)N[C@H](C)C(=O)N[C@@H](CO)C(=O)NCC(=O)N(C)[C@H](Cc2ccccc2)C(=O)N[C@@H](CC(C)C)C(=O)N[C@H](CCCN)C(=O)N[C@@H](CCC(=O)O)C(=O)N[C@H](CC(N)=O)C(=O)N[C@H](Cc2c[nH]c3ccccc23)C(=O)N[C@H](CCCN)C(=O)N(C)[C@@H](C(C)C)C(=O)O1`, for which the MIC in the assay on Staphylococcus aureus [1] amounted to 1 µg/mL (≈ 0.665 µM); in the assay on Staphylococcus aureus [2], 2 µg/mL (≈ 1.33 µM).

In the case of `CC(C)CCC[C@@H]1CC(=O)N[C@@H](C)C(=O)N[C@H](CC(N)=O)C(=O)N[C@@H](CO)C(=O)NCC(=O)N(C)[C@H](Cc2ccccc2)C(=O)N[C@@H](CC(C)C)C(=O)N[C@H](CCCN)C(=O)N[C@@H](CCC(=O)O)C(=O)N[C@H](CC(N)=O)C(=O)N[C@H](Cc2c[nH]c3ccccc23)C(=O)N[C@H](CCCN)C(=O)N(C)[C@@H](C(C)C)C(=O)O1`, the MIC against Staphylococcus aureus [1] and against Staphylococcus aureus [2] was 2 µg/mL (≈ 1.31 µM) throughout.

Take `CC(C)CCC[C@@H]1CC(=O)N[C@@H](CO)C(=O)N[C@H]([C@@H](O)C(N)=O)C(=O)N[C@@H](CO)C(=O)NCC(=O)N(C)[C@H](Cc2ccccc2)C(=O)N[C@@H](CC(C)C)C(=O)N[C@H](CCCN)C(=O)N[C@@H](CCC(=O)O)C(=O)N[C@H](CC(N)=O)C(=O)N[C@H](Cc2c[nH]c3ccccc23)C(=O)N[C@H](CCCN)C(=O)N(C)[C@@H](C(C)C)C(=O)O1`: the MIC with Staphylococcus aureus [1] and in the assay with Staphylococcus aureus [2] was 1 µg/mL (≈ 0.64 µM) throughout.

With `CC(C)CCC[C@@H]1CC(=O)N[C@@H](CO)C(=O)N[C@H](CC(N)=O)C(=O)N[C@@H](CO)C(=O)NCC(=O)N[C@H](C)C(=O)N[C@@H](CC(C)C)C(=O)N[C@H](CCCN)C(=O)N[C@@H](CCC(=O)O)C(=O)N[C@H](CC(N)=O)C(=O)N[C@H](Cc2c[nH]c3ccccc23)C(=O)N[C@H](CCCN)C(=O)N(C)[C@@H](C(C)C)C(=O)O1`, the MIC with Staphylococcus aureus [1] and in the assay on Staphylococcus aureus [2] was at least 32 µg/mL throughout.

Turning to `CC(C)CCC[C@@H]1CC(=O)N[C@@H](CO)C(=O)N[C@H]([C@H](O)C(N)=O)C(=O)N[C@@H](CO)C(=O)NCC(=O)N(C)[C@H](Cc2ccccc2)C(=O)N[C@@H](CC(C)C)C(=O)N[C@H](CCCN)C(=O)N[C@@H](CCC(=O)O)C(=O)N[C@H](CC(N)=O)C(=O)N[C@H](Cc2c[nH]c3ccccc23)C(=O)N[C@H](CCCN)C(=O)N(C)[C@@H](C(C)C)C(=O)O1`, the MIC in the assay with Staphylococcus aureus [1] and against Staphylococcus aureus [2] was 1 µg/mL (≈ 0.64 µM) throughout.
